Experimental data as given in patent publication US20140148498A1, “METHODS AND COMPOSITIONS FOR THE TREATMENT OF MARFAN SYNDROME AND ASSOCIATED DISORDERS” (THE JOHNS HOPKINS UNIVERSITY, priority 2011, published 2014).
“Also recorded” adds a separate entry of the source.

How the values were obtained:
[1] = tested on: ERK5; experiment: Western blot of proximal ascending aorta: ERK5 activation (Examples 6-8); format: in vivo; conditions: Fbn1^C1039G/+ mice, RDEA119 trial, FIG. 16D
Source text: (§1) All mice were cared for under strict compliance with the Animal Care and Use Committee of the Johns Hopkins University School of Medicine. The Smad4 haploinsufficient mice were a generous gift from Dr. Chuxia Deng (NIH/NIDDK, Bethesda). The Fbn1^C1039G/+ line was maintained on a C57BL/6 background, allowing for valid comparisons. In order to further accommodate the potential for temporal- or background-specific variation in genetic or pharmacological manipulation experiments, all comparisons were made between contemporary littermates. Mice were checked daily for death and all mice found dead were immediately necropsied to assess for evidence of aortic dissection. Mice were killed with an inhalation overdose of halothane (Sigma-Aldrich, St. Louis). […] Following PBS infusion, mice analyzed for aortic histology had latex injected under low pressure into the left ventricular apex until it was visible in the descending abdominal aorta. […]
(§2) Protein was extracted using the reagents and protocol from a Total Protein Extraction Kit, in conjunction with a Protein Phosphatase Inhibitor Cocktail (Millipore, MA). […] Equal protein loading of samples was determined by a protein assay (BioRad, CA) and confirmed by probing with antibodies against β-Actin or GAPDH (Sigma, Mo.). […]

[2] = tested on: p38; experiment: Western blot of proximal ascending aorta: p38 activation (Examples 6-8); format: in vivo; conditions: Fbn1^C1039G/+ mice, RDEA119 trial, FIG. 16D
Source text: as §1, §2

[3] = tested on: WT mice; experiment: Aortic root growth by echocardiography, WT mice (Examples 6-8); format: in vivo
Source text: (§3) All mice were cared for under strict compliance with the Animal Care and Use Committee of the Johns Hopkins University School of Medicine. The Smad4 haploinsufficient mice were a generous gift from Dr. Chuxia Deng (NIH/NIDDK, Bethesda). The Fbn1^C1039G/+ line was maintained on a C57BL/6 background, allowing for valid comparisons. In order to further accommodate the potential for temporal- or background-specific variation in genetic or pharmacological manipulation experiments, all comparisons were made between contemporary littermates. Mice were checked daily for death and all mice found dead were immediately necropsied to assess for evidence of aortic dissection. Mice were killed with an inhalation overdose of halothane (Sigma-Aldrich, St. Louis). Mice underwent immediate laparotomy, descending abdominal aortic transection, and PBS (pH 7.4) infusion through the left ventricle to flush out the blood. For Western blot analysis, the proximal ascending aorta (root to right brachiocephalic trunk) was removed, flash frozen in liquid nitrogen and stored at −80° C. Following PBS infusion, mice analyzed for aortic histology had latex injected under low pressure into the left ventricular apex until it was visible in the descending abdominal aorta. The mice were then fixed for 24 hours in 10% buffered formalin, after which the heart and aorta were removed and stored in 70% ethanol.
(§4) Mouse monoclonal TGFβNAb (1d11; R&D Systems, Minneapolis) was reconstituted in PBS and administered via intraperitoneal injection 3 times a week at a dose of 5 mg/kg. Treatment was initiated at 1 month of age and continued for 2 months. IgG (Zymed Laboratories Inc, San Francisco) was reconstituted in PBS, and administered at a dose of 10 mg/kg as a control. […]
(§5) Nair hair removal cream was used on all mice the day prior to echocardiography. […] Three separate measurements of the maximal internal systolic dimension at the sinus of Valsalva and proximal ascending aorta were made, and a mean was calculated. […]

[4] = tested on: JNK1; experiment: Western blot of proximal ascending aorta: JNK1 activation (Examples 6-8); format: in vivo, mice
Source text: as §1, §2

[5] = tested on: Fbn1^C1039G/+ mice; experiment: Aortic root and ascending aortic growth by echocardiography (Examples 6-8); format: in vivo
Source text: as §3
Mouse monoclonal TGFβNAb (1d11; R&D Systems, Minneapolis) was reconstituted in PBS and administered via intraperitoneal injection 3 times a week at a dose of 5 mg/kg. Treatment was initiated at 1 month of age and continued for 2 months. IgG (Zymed Laboratories Inc, San Francisco) was reconstituted in PBS, and administered at a dose of 10 mg/kg as a control. SP600125 (Sigma-Aldrich, St. Louis) was reconstituted in 10% DMSO dissolved in PBS, and administered twice daily by intraperitoneal injection, at a dose of 30 mg/kg. Treatment was initiated at 1 month of age and continued for 2 months. 10% DMSO dissolved in PBS was administered as a control. RDEA119 was reconstituted in 10% 2-hydroxypropyl-beta-cyclodextrin (Sigma-Aldrich, St. Louis) dissolved in PBS, and administered twice daily by oral gavage at a dose of 25 mg/kg. Treatment was initiated at 2 months of age and continued for 2 months. 10% 2-hydroxypropyl-beta-cyclodextrin dissolved in PBS was administered as a control. Fasudil was dissolved in drinking water, and administered at a dose of 1 mg/kg body weight per day. Treatment was initiated at 2 months of age and continued for 4 months. Drinking water was administered as a control.
Nair hair removal cream was used on all mice the day prior to echocardiography. All echocardiograms were performed on awake, unsedated mice using the Visualsonics Vevo 660 V1.3.6 imaging system and a 30 MHz transducer. The aorta was imaged using a parasternal long axis view. Three separate measurements of the maximal internal systolic dimension at the sinus of Valsalva and proximal ascending aorta were made, and a mean was calculated. All imaging and measurements were performed by a cardiologist who was blinded to genotype and treatment arm. In the TGFβNAb and SP600125 trials, mice were imaged at 1 month (baseline) and 3 months of age, after which they were killed. In the RDEA119 trial, mice were imaged at 2 months (baseline) and 4 months of age, after which they were killed. In the fasudil trial, mice were imaged at 2 months (baseline) and 6 months of age, after which they were killed. Smad4 haploinsufficient mice were imaged at 1 month, and then every 2 months thereafter, until death or sacrifice.

[6] = tested on: ERK1/2; experiment: Western blot of proximal ascending aorta: ERK1/2 activation (Examples 6-8); format: in vivo, mice
Source text: as §3, §4, §2

[7] = tested on: Smad2; experiment: Western blot of proximal ascending aorta: Smad2 activation (Examples 6-8); format: in vivo; conditions: Fbn1^C1039G/+ mice, RDEA119 trial, FIG. 16D
Source text: as §1, §2

[8] = Body weight at the end of the two month RDEA119 trial; format: in vivo; conditions: WT or Fbn1^C1039G/+ mice, FIG. 25
Method: (§6) Mouse monoclonal TGFβNAb (1d11; R&D Systems, Minneapolis) was reconstituted in PBS and administered via intraperitoneal injection 3 times a week at a dose of 5 mg/kg. Treatment was initiated at 1 month of age and continued for 2 months. IgG (Zymed Laboratories Inc, San Francisco) was reconstituted in PBS, and administered at a dose of 10 mg/kg as a control. SP600125 (Sigma-Aldrich, St. Louis) was reconstituted in 10% DMSO dissolved in PBS, and administered twice daily by intraperitoneal injection, at a dose of 30 mg/kg. Treatment was initiated at 1 month of age and continued for 2 months. 10% DMSO dissolved in PBS was administered as a control. RDEA119 was reconstituted in 10% 2-hydroxypropyl-beta-cyclodextrin (Sigma-Aldrich, St. Louis) dissolved in PBS, and administered twice daily by oral gavage at a dose of 25 mg/kg. Treatment was initiated at 2 months of age and continued for 2 months. 10% 2-hydroxypropyl-beta-cyclodextrin dissolved in PBS was administered as a control. Fasudil was dissolved in drinking water, and administered at a dose of 1 mg/kg body weight per day. Treatment was initiated at 2 months of age and continued for 4 months. Drinking water was administered as a control. […]

[9] = tested on: S4^+/−:Fbn1^C1039G/+ mice; experiment: Aortic root and ascending aortic growth by echocardiography, Smad4 haploinsufficient MFS mice; format: in vivo
Source text: as §3
as §6, with “months.” for “months. Drinking water was administered as a control.”
as §5

[10] = tested on: S4^+/−:Fbn1^C1039G/+ mice; experiment: Survival (premature death due to aortic dissection); format: in vivo
Source text: as §3, with “ethanol. […]” for “ethanol.”

[11] = tested on: abdominal aortic aneurysm induced by the periaortic application of calcium chloride; conditions: prior work (Yoshimura et al. 2005), in association with reduced JNK1 activation; cited from earlier work
[12] = 25 mg/kg twice daily oral gavage, 2 to 4 months of age, FIG. 16C
[13] = RDEA119 trial, 2 months of treatment
[14] = Fbn1^C1039G/+ mice, RDEA119 trial, FIG. 16D
[15] = 30 mg/kg twice daily i.p., 1 to 3 months of age, FIG. 23A
[16] = WT and Fbn1^C1039G/+ mice after two weeks of therapy, FIG. 24

With COc1cc(F)c(F)c(Nc2ccc(I)cc2F)c1NS(=O)(=O)C1(C[C@H](O)CO)CC1 [RDEA119] as the compound, how does the ERK5 activation [1] read?
Its ERK5 activation is “unchanged”.

And the p38 activation [2]?
Its p38 activation is “unchanged”.

What about the “Final absolute aortic root diameter” value [3, 12] of the same compound?
Its value is 1.64+/−0.09 mm.

And the Aortic root growth [3, 13]?
Its Aortic root growth is “no significant effect”.

What about the JNK1 activation [4, 14] of the same compound?
The JNK1 activation was “unchanged”.

What about the “Final absolute aortic root diameter” value [5, 12] of the same compound?
Its value is 1.94+/−0.07 mm.

What about the Aortic root growth [5, 13] of the same compound?
Its Aortic root growth is “selectively reduced growth; also recorded: significantly less than that of placebo-treated”.

And the ERK1/2 activation [6, 14]?
Its ERK1/2 activation is “selective reduction in pERK1/2 signaling; also recorded: significant reduction in ERK1/2 activation”.

What about the Smad2 activation [7] of the same compound?
The Smad2 activation was “unchanged”.

What about the “Weight (somatic growth) at the end of the two month trial” value [8] of the same compound?
Its value is “does not significantly affect somatic growth; also recorded: did not significantly affect the weight”.

For O=C1c2ccccc2-c2n[nH]c3cccc1c23 [SP600125], which “Final absolute aortic root diameter” value [9, 15] is on record?
Its value is 2.09+/−0.16 mm.

What about the “Final absolute ascending aortic diameter” value [9, 15] of the same compound?
Its value is 1.47+/−0.14 mm.

What about the Aortic root growth ([9]; SP600125 trial, versus placebo) of the same compound?
Its Aortic root growth is “decreased aortic root growth; also recorded: significant reduction”.

And the Ascending aortic growth ([9]; SP600125 trial, versus placebo)?
Its Ascending aortic growth is “reduced ascending aortic growth; also recorded: significant reduction”.

What about the “Mice still alive at 3 months of age” value ([10]; 50% of placebo-treated had died) of the same compound?
Its value is “all”.

What about the “Premature death due to aortic dissection” value ([10]; FIG. 23B) of the same compound?
Its value is “prevention of premature death; also recorded: prevented the premature death”.

And the Abdominal aortic aneurysm [11]?
The Abdominal aortic aneurysm was “ameliorate abdominal aortic aneurysm”.

What about the JNK1 activation [4, 16] of the same compound?
Its JNK1 activation is “significant reduction in JNK1 activation; also recorded: reduction of JNK1 activation to levels below baseline”.

What about the “Final absolute aortic root diameter” value [5, 15] of the same compound?
The value was 1.97+/−0.16 mm.

What about the “Final absolute ascending aortic diameter” value [5, 15] of the same compound?
The value was 1.38+/−0.06 mm.

And the Aortic root growth ([5]; SP600125 trial, versus placebo)?
The Aortic root growth was “decreased aortic root growth; also recorded: ameliorated their aortic root growth”.

What about the ERK1/2 activation [6, 16] of the same compound?
Its ERK1/2 activation is “no change in ERK1/2 activation; also recorded: remained unaffected”.
